In US6875421B2, “Method for detecting chitin-containing organisms” (Albert Einstein College of Medicine of Yeshiva University, priority 1997, dated 2005):

Columns and labels:
[1] = Toxicity: solution spread on dorsum of hands of volunteers; type: in vivo, human; details: 1% solution on dorsum of hands, 12 hours continuously
Experimental: The 1% solution was also spread on the dorsum of four hands of volunteers and allowed to remain continuously for 12 hours before being washed off.

P. capitis nits = test: Visualizing nits on human hair under UV light; details: hair with attached nits dipped into 1% solution for two minutes, examined wet under UV light
Text: Human hair with attached P. capitis nits obtained as a waste product after barbering were obtained and dipped into a 1% solution of calcofluor white for two minutes. The hair was removed and examined wet under UV light. […] Identification was easy, specific, and totally unambiguous.

deer ticks = test: Visualizing deer ticks under long range UV light; parameters: species or system deer tick
Text: Use as a visualizing agent for deer ticks was investigated as well. Live deer ticks were gathered from a wooded area in Westchester County, N.Y. and sprayed with a 1% solution of Calcofluor white. The ticks were placed on a white cotton sheet and exposed to long range UV light from a portable UV lamp.

## O=S(=O)(O)c1cc(Nc2nc(Nc3ccccc3)nc(N(CCO)CCO)n2)ccc1/C=C/c1ccc(Nc2nc(Nc3ccccc3)nc(N(CCO)CCO)n2)cc1S(=O)(=O)O [calcofluor white]
[1]
  physical reactions such as pruritus, erythema, induration or discoloration: did not provoke any physical reactions
  physical sensation on skin: caused no physical sensation
P. capitis nits
  visualization of nits (fluorescence) under UV light: clearly seen as brightly fluorescent white ovoid bodies
Deer ticks; live ticks sprayed with 1% solution, on white cotton sheet, portable UV lamp
  visualization of deer ticks (fluorescence) under long range UV light: easily visualized as brightly fluorescent objects
Deer ticks; ticks without autofluorescence, then sprayed and exposed to ultraviolet light
  fluorescence of deer ticks after subsequent spray: intense fluorescence
